Starred links: 1 amine or outer side, 2 acyl side, 3 side chain; linkers in the order of their positions; H or OH if unused. Positions of bridges follow the written chain, without caps; N, C: chain ends. Non-standard residues stand in square brackets, D forms with d. Residues, ends and D or L forms follow the SMILES beside them. Chains are numbered I, II in the order given. Adipoyl = O=C(CCCCC(=O)[*:2])[*:1]; Glutaryl = O=C(CCCC(=O)[*:2])[*:1]; 3Abz = Nc1cccc(C(=O)O)c1; 4Abz = Nc1ccc(C(=O)O)cc1
Molecular target: human platelet-rich plasma (Homo sapiens, UniProt P05106+P08514)
Assay: In vitro inhibition of ADP-induced aggregation of human platelet-rich plasma (Coller assay)
Format: cell-based
Conditions: adjusted for fibrinogen concentration (ca. 30 times lower than Coller assay value; 0.1 mg/mL fibrinogen)
Method: 1. In vitro Inhibition of Aggregation of Human Platelet-Rich Plasma
Whole blood (10 ml) was collected from human volunteers and anticoagulated by addition of […] of 40% sodium citrate. Platelet-rich plasma (PRP) was prepared by low speed centrifugation (700 G for 3.5 min at 22° C.). The PRP was removed and the remaining blood was centrifuged at 2000 G for 10 min at 22 ° C. to obtain platelet poor plasma (PPP). The PRP was diluted with PPP to give a final platelet count of 300 000μL with a Coulter Acounter Model ZM (Coulter, Hialeah, Fla.). This diluted PRP (400μL) was placed in a siliconized glass cuvette equipped with a magnetic stirrer and stirred at 1200 rpm at 37° C. Various concentrations of the peptides (36μL) in TRIS buffer (0.01 M TRIS, 0.15 M NaCl, and 0.05% sodium azide, pH 7.4) was added and incubated for 3 rain before platelet aggregation was induced by addition of 54μL of 100μM ADP in HEPES buffer (0.01 M HEPES and 0.15 M NaCl, pH 7.5). The platelet aggregation was determined by a change in light transmission through the PRP on a Lumi Aggregometer 400rS (ChronoLog, Hayertown, PA). The ability of the peptides to inhibit platelet aggregation was evaluated and the IC50 was determined as the concentration of peptide required to produce 50% inhibition of the response to ADP in the presence of the TRIS buffer.
The assay system developed by Coller, which is used throughout the experiment, is different from conventional assay systems in certain aspects. First, the platelets used by Plow et al., Blood, 70, 110 (1987); and Garsky et al., Proc. Natl. Acad. Sci. U.S.A., 86, 4022 (1989) are gel-filtered to remove plasma proteins. Since the gel-filtration treatment may decrease the reactivity of the platelets, our assay avoids this step. The platelet count is adjusted by simply mixing PRP and PPP, which minimizes alterations of the platelets. Second, fibrinogen concentration in the Coller system is different from that of others. As shown in the experimental description of the assay, PRP was obtained from fresh blood and used immediately without further manipulation except for count adjustment. According to measurements obtained using this assay, such plasma contains ca. 3 mg of fibrinogen per 1 mL of plasma. On the other hand, fibrinogen concentration used in the Garsky and Plow assay system is 0.1 mg/mL. The concentration of fibrinogen affects the amount of RGD peptide required to inhibit platelet aggregation, with higher fibrinogen concentrations resulting in higher IC50 values. If there is a linear relationship between these two parameters, the IC50 values obtained from the Coller assay should be ca. 30 times larger than those obtained from the Plow et al. assay or the Garsky et al. assay. The adjusted IC50 values are presented in column 4 of Table showing the inhibitory activities of RGD peptides.
The following peptides were synthesized, and their amino acid contents were analyzed as described in procedures 3-7, above. In addition, their ability to inhibit aggregation of human platelet rich plasma was assessed as described in procedures 1 and 2, above. Their respective IC50 values, as well as their estimated IC50 adjusted to the values according the method of Plow et al., (vide supra) are listed in Table 1.

Chain of human platelet-rich plasma (P08514 32-1039): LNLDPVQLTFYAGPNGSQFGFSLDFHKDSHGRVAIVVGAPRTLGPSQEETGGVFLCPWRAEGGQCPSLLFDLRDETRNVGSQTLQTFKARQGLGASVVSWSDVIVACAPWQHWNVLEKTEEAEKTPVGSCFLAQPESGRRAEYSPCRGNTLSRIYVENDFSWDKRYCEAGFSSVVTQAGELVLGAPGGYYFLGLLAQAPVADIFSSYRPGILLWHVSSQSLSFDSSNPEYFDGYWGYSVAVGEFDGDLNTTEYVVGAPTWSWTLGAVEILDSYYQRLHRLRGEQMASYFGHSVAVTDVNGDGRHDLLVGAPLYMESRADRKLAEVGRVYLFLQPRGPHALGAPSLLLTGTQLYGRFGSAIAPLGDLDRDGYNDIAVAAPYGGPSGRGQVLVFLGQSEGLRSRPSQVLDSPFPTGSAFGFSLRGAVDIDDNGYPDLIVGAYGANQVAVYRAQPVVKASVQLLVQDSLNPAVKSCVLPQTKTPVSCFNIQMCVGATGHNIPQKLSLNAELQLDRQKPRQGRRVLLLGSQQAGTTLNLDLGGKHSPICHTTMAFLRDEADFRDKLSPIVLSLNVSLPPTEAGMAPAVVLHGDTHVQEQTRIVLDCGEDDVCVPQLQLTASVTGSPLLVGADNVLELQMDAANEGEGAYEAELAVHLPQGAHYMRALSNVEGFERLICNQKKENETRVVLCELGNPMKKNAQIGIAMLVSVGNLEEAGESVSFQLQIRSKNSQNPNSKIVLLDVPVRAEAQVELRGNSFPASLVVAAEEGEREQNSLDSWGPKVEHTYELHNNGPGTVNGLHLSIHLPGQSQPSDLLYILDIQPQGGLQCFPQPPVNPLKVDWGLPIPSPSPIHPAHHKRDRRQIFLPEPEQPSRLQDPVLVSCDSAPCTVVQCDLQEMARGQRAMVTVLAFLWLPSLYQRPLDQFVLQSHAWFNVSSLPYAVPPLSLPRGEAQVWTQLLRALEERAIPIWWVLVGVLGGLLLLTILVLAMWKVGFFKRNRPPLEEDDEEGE
Chain of human platelet-rich plasma (P05106 27-788): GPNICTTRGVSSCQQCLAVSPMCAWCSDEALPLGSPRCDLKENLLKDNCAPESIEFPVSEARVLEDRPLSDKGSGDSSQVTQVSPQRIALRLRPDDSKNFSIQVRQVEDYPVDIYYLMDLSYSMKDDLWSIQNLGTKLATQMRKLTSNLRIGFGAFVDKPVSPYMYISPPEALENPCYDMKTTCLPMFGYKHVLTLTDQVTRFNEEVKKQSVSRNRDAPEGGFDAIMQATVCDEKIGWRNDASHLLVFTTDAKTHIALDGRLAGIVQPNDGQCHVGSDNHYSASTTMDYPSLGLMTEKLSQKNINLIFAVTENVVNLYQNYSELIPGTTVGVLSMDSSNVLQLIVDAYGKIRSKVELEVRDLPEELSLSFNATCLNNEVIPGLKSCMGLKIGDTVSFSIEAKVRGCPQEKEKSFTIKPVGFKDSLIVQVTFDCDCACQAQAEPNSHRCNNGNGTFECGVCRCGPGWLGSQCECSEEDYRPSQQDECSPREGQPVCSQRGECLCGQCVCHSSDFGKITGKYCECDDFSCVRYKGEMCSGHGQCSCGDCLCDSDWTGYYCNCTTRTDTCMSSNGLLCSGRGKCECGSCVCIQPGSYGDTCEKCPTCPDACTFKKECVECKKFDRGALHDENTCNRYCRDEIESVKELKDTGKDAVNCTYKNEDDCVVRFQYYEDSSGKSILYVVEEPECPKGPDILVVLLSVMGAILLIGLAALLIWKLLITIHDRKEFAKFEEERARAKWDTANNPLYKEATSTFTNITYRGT

| IC50 (M)* Estimated IC50 adjusted to the values by the method of Plow et al. [M] | SMILES |
| --- | --- |
| 2.1e-06 | N=C(N)NCCC[C@H](NC(=O)CN)C(=O)NCC(=O)N[C@@H](CC(=O)O)C(=O)N[C@@H](Cc1ccccc1)C(=O)NCCC[C@H](NC(=O)[C@H](Cc1ccccc1)NC(=O)[C@H](CC(=O)O)NC(=O)CNC(=O)[C@H](CCCNC(=N)N)NC(=O)CN)C(=O)NCC(=O)N[C@@H](CCCNC(=N)N)C(=O)NCC(=O)N[C@@H](CC(=O)O)C(=O)N[C@@H](Cc1ccccc1)C(N)=O [Example 18, (GRGDF)2 Orn--GRGDF--NH2] |
| 3e-06 | N=C(N)NCCC[C@H](NC(=O)CN)C(=O)NCC(=O)N[C@@H](CC(=O)O)C(=O)N[C@@H](CO)C(=O)NCC(=O)Nc1cccc(C(=O)NCC(=O)N[C@@H](CCCNC(=N)N)C(=O)NCC(=O)N[C@@H](CC(=O)O)C(=O)N[C@@H](Cc2ccccc2)C(N)=O)c1 [Example 26, GRGDSG--(m)Abz--GRGDF--NH2] (H-GRGDSG[3Abz]GRGDF-NH2) |
| 1.2e-06 | N=C(N)NCCC[C@H](N)C(=O)NCC(=O)N[C@@H](CC(=O)O)C(=O)N[C@@H](Cc1ccccc1)C(=O)NCCCC[C@H](NC(=O)[C@H](Cc1ccccc1)NC(=O)[C@H](CC(=O)O)NC(=O)CNC(=O)[C@@H](N)CCCNC(=N)N)C(N)=O [Example 3, (RGDF)2 Lys--NH2] |
| 2.1e-06 | N=C(N)NCCC[C@H](NC(=O)CN)C(=O)NCC(=O)N[C@@H](CC(=O)O)C(=O)N[C@@H](Cc1ccccc1)C(=O)NCC(=O)Nc1ccc(C(=O)NCC(=O)N[C@@H](CCCNC(=N)N)C(=O)NCC(=O)N[C@@H](CC(=O)O)C(=O)N[C@@H](Cc2ccccc2)C(N)=O)cc1 [Example 24, GRGDFG--(p)Abz--GRGDF--NH2] (H-GRGDFG[4Abz]GRGDF-NH2) |
| 1.7e-06 | N=C(N)NCCC[C@H](NC(=O)CN)C(=O)NCC(=O)N[C@@H](CC(=O)O)C(=O)N[C@@H](CO)C(=O)NCC(=O)Nc1ccc(C(=O)NCC(=O)N[C@@H](CCCNC(=N)N)C(=O)NCC(=O)N[C@@H](CC(=O)O)C(=O)N[C@@H](Cc2ccccc2)C(N)=O)cc1 [Example 27, GRGDSG-(p)Abz--GRGDF--NH2] (H-GRGDSG[4Abz]GRGDF-NH2) |
| 4.7e-07 | N=C(N)NCCC[C@H](NC(=O)CCCCC(=O)N[C@@H](CCCNC(=N)N)C(=O)NCC(=O)N[C@@H](CC(=O)O)C(=O)N[C@@H](Cc1ccccc1)C(=O)O)C(=O)NCC(=O)N[C@@H](CC(=O)O)C(=O)N[C@@H](Cc1ccccc1)C(=O)O [Example 14, Bda(RGDF--OH)2] (I: RGDF-OH / II: RGDF-OH; linker I:N-II:N via Adipoyl) |
| 1.1e-06 | N=C(N)NCCC[C@H](NC(=O)CN)C(=O)NCC(=O)N[C@@H](CC(=O)O)C(=O)N[C@@H](Cc1ccccc1)C(=O)NCC(=O)Nc1cc(NC(=O)CNC(=O)[C@H](Cc2ccccc2)NC(=O)[C@H](CC(=O)O)NC(=O)CNC(=O)[C@H](CCCNC(=N)N)NC(=O)CN)cc(C(=O)NCC(=O)N[C@@H](CCCNC(=N)N)C(=O)NCC(=O)N[C@@H](CC(=O)O)C(=O)N[C@@H](Cc2ccccc2)C(N)=O)c1 [Example 15, (GRGDFG)2 Dab--GRGDF--NH2] |
| 5e-07 | N=C(N)NCCC[C@H](NC(=O)CCCC(=O)N[C@@H](CCCNC(=N)N)C(=O)NCC(=O)N[C@@H](CC(=O)O)C(=O)N[C@@H](Cc1ccccc1)C(=O)O)C(=O)NCC(=O)N[C@@H](CC(=O)O)C(=O)N[C@@H](Cc1ccccc1)C(=O)O [Example 13, Pda (RGDF--OH)2] (I: RGDF-OH / II: RGDF-OH; linker I:N-II:N via Glutaryl) |

| SMILES | IC50 (M)* Estimated IC50 adjusted to the values by the method of Plow et al. [M] |
| --- | --- |
| N=C(N)NCCC[C@H](NC(=O)CN)C(=O)NCC(=O)N[C@@H](CC(=O)O)C(=O)N[C@@H](Cc1ccccc1)C(=O)NCC(=O)Nc1ccc(C(=O)NCC(=O)N[C@@H](CCCNC(=N)N)C(=O)NCC(=O)N[C@@H](CC(=O)O)C(=O)N[C@@H](Cc2ccccc2)C(=O)O)cc1 [Example 21, GRGDFG--(p)Abz--GRGDF--OH] (H-GRGDFG[4Abz]GRGDF-OH) | 1.2e-06 |
